Reference: US6376427B1, “Herbicidal compositions” (Sumitomo Chemical Company, Limited, priority 1998, dated 2002)

How the values were obtained:
giant foxtail [1] = test: Test Example 2: post-emergence foliar spray, herbicidal activity; type: in vivo, giant foxtail (Setaria faberi); conditions: sprayed on 22-day plants, examined 5 days after application, index 0 to 10
Procedure: (§1) Plastic pots each having an area of 26.5×19 cm^2 and a depth of 7 cm were filled with upland soil, and then seeded with soybean, corn and giant foxtail. The corn was grown for 13 days, and the soybean and giant foxtail were grown for 22 days in a greenhouse. An emulsifiable concentrate compound A which had been obtained by well mixing 10 parts of compound A, 14 parts of polyoxyethylene styryl phenyl ether, 6 parts of calcium dodecylbenzenesulfonate, 35 parts of xylene, and 35 parts of cyclohexanone, an emulsifiable concentrate of flufenacet which had been obtained by well mixing 10 parts of flufenacet, 14 parts of polyoxyethylene styryl phenyl ether, 6 parts of calcium dodecylbenzenesulfonate, 35 parts of xylene, and 35 parts of cyclohexanone, and a mixture of the emulsifiable concentrate of compound A and the emulsifiable concentrate of flufenacet were independently diluted in their prescribed amounts with water. Each dilution was uniformly sprayed over the plants with a small sprayer. After the application, the plants were grown in the greenhouse for 5 days, and the herbicidal activity and safety to soybean and corn were then examined.

giant foxtail [2] = test: Test Example 1: post-emergence foliar spray, herbicidal activity; type: in vivo, giant foxtail (Setaria faberi); conditions: sprayed on 23-day plants, examined 5 days after application, index 0 to 10
Procedure: (§2) Plastic pots each having an area of 26.5×19cm^2 and a depth of 10 cm were filled with upland soil, and then seeded with wheat and giant foxtail. The wheat was grown for 14 days and t he giant foxtail was grown for 23 days in a greenhouse. An emulsifiable concentrate compound A which had been obtained by well mixing 10 parts of compound A, 14 parts of polyoxyethylene styryl phenyl ether, 6 parts of calcium dodecylbenzenesulfonate, 35 parts of xylene, and 35 parts of cyclohexanone, an emulsifiable concentrate of flufenacet which had been obtained by well mixing 10 parts of flufenacet, 14 parts of polyoxyethylene styryl phenyl ether, 6 parts of calcium dodecylbenzenesulfonate, 35 parts of xylene, and 35 parts of cyclohexanone, and a mixture of the emulsifiable concentrate of compound A and the emulsifiable concentrate of flufenacet were independently diluted in their prescribed amounts with water. Each dilution was uniformly sprayed over the plants with a small sprayer. After the application, the plants were grown in the greenhouse for 5 days, and the herbicidal activity and safety to wheat were then examined.

wheat = test: Test Example 1: safety to wheat (phytotoxicity); type: in vivo, wheat (Triticum aestivum); conditions: dosage 10 g/ha; sprayed on 14-day wheat; examined 5 days after application
Procedure: as §2

soybean = test: Test Example 2: safety to soybean (phytotoxicity); type: in vivo; conditions: dosage 40 g/ha; sprayed on 22-day soybean; examined 5 days after application
Procedure: as §1

corn = test: Test Example 2: safety to corn (phytotoxicity); type: in vivo; conditions: dosage 40 g/ha; sprayed on 13-day corn; examined 5 days after application
Procedure: as §1

Row | SMILES | Herbicidal activity Giant foxtail (giant foxtail [1]; dosage 400 g/ha) | Herbicidal activity Giant foxtail (giant foxtail [2]; dosage 240 g/ha) | Phytotoxicity Wheat (wheat) | Herbicidal activity Giant foxtail (giant foxtail [1]; dosage 40 g/ha) | Herbicidal activity Giant foxtail (giant foxtail [2]; dosage 10 g/ha) | Phytotoxicity Soybean (soybean) | Phytotoxicity Corn (corn)
1 | CC(C)N(C(=O)COc1nnc(C(F)(F)F)s1)c1ccc(F)cc1 [Flufenacet, 4-fluoro-N-isopropyl-2-(5-trifluoromethyl-,1,3,4-thiadiazol-2-yloxy)acetanilide, reference compound] | 2 | 2 | – | – | – | – | –
2 | CCOC(=O)COc1cc(-n2ncc(C(F)(F)F)c(C)c2=O)c(F)cc1Cl [Compound A] | – | – | No harm | 4 | 3 | No harm | No harm
